Source: US20200109126A1 (priority 2017, published 2020)
Where two headings read alike, the source gives them in different places.

Legend:
[1] = molecular target: hKOR (Homo sapiens, UniProt P41145); experiment: Receptor binding with [3H]diprenorphine at hKOR
[2] = molecular target: hMOR (Homo sapiens, UniProt P35372); experiment: Receptor binding with [3H]diprenorphine at hMOR
[3] = molecular target: humanDOR (Homo sapiens, UniProt P41143); experiment: Receptor binding with [3H]diprenorphine at human DOR
[4] = PZM analogs, (n) = number of independent experiments, read-out: binding affinity Ki hKOR
[5] = PZM analogs, (n) = number of independent experiments, read-out: binding affinity Ki hMOR
[6] = PZM analogs, (n) = number of independent experiments, read-out: binding affinity Ki hDOR
[7] = ± SD (two experiments) or SEM, (n) experiments, read-out: hKOR [3H]dyprenorphine Ki
[8] = ± SD (two experiments) or SEM, (n) experiments, read-out: humanDOR [3H]dyprenorphine Ki
[9] = ± SD (two experiments) or SEM, (n) experiments, read-out: hMOR [3H]dyprenorphine Ki

Sequence of hKOR (P41145 whole entry): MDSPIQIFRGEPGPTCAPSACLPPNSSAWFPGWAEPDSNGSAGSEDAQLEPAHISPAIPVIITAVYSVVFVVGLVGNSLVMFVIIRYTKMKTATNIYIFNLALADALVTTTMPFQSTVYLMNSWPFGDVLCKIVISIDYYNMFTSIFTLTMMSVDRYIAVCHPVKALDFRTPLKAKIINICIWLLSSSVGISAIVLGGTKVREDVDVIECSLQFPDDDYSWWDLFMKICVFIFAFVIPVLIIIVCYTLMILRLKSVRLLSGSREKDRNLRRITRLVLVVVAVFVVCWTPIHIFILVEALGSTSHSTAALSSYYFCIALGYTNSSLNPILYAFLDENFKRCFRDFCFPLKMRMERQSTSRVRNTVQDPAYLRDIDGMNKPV
Sequence of humanDOR (P41143 whole entry): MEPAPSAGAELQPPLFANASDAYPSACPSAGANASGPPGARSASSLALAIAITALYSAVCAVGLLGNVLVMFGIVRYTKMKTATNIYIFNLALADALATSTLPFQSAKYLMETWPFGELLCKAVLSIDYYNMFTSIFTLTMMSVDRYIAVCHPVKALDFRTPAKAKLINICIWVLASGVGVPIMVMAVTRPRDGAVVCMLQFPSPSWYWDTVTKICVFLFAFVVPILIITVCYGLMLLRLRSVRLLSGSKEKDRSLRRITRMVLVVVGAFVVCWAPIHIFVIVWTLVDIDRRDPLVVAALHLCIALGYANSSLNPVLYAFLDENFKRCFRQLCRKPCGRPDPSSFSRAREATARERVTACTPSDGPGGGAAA
Sequence of hMOR (P35372 whole entry): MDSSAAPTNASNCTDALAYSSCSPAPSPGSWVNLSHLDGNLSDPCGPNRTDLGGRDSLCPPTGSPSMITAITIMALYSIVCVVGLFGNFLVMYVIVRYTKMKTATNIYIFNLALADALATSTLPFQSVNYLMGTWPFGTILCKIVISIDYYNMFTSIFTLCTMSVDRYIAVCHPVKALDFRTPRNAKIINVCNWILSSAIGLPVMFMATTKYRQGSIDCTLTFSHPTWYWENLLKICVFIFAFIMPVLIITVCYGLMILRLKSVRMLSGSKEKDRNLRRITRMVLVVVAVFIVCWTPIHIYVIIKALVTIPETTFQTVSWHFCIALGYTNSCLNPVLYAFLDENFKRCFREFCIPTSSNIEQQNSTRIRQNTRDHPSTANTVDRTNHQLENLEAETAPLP

| Compound | Ki [1, 4] [nM] | Ki [2, 5] [nM] | Ki [3, 6] [nM] | other results |
| --- | --- | --- | --- | --- |
| CN(C)[C@@H](CNC(=O)NCCc1ccsc1)Cc1ccccc1 | 8100 | 4200 | 25000 |  |
| C[C@H](Cc1csc2ccccc12)NC(=O)NC[C@H](Cc1ccc(O)cc1)N(C)C | 67 | 43 | 83 |  |
| CN(C)[C@H](CNC(=O)NC(C)(C)Cc1ccccc1)Cc1ccccc1 | 930 | 490 | 3300 |  |
| C[C@@H](Cc1ccsc1)NC(=O)NC[C@H](Cc1cccc(O)c1)N(C)C [drawing 531] | 46 | 34 | 350 |  |
| CN(CC1CC1)[C@H](CNC(=O)NCCc1ccccc1)Cc1ccc(O)cc1 [drawing 507] |  | 760 |  |  |
| CC(C)N(C[C@H](Cc1ccc(O)cc1)N(C)C)C(=O)N[C@@H](C)c1cccc2ccccc12 | 920 | 400 | 570 |  |
| CC(Cc1ccsc1)NC(=O)NCC(Cc1ccccc1)N(C)C (single isomer, unassigned) [BD 127DR] |  |  |  | Ki [1, 7]: 5000 nM; Ki [3, 8]: 12000 nM |
| C[C@H](Cc1ccccc1)NC(=O)NC[C@H](Cc1ccc(O)cc1)N(C)C [drawing 516] | 67 | 81 | 91 |  |
| C[C@@H](Cc1csc2ccccc12)NC(=O)NC[C@H](Cc1ccc(O)cc1)N(C)C [drawing 521] | 22 | 8.3 | 110 |  |
| C[C@@H](Cc1ccsc1)NC(=O)NC[C@H](Cc1ccnc(O)c1)N(C)C | 1200 | 210 | 4100 |  |
| COc1ccc(CCNC(=O)NCC(Cc2ccc(O)cc2)N(C)C)cc1 (stereo not shown) | 1500 | 330 | 10000 |  |
| CN(C)[C@H](CNC(=O)NCCc1ccccc1)Cc1ccc(O)cc1 [drawing 514] | 45 | 47 | 250 |  |
| CN(C)[C@H](CNC(=O)NCCc1cn(Cc2ccccc2)nn1)Cc1ccc(O)cc1 |  |  | 380 | Ki [1]: 1400 nM; Ki [2]: 200 nM |
| CN(C)C(CNC(=O)NCCc1ccc(F)cc1)Cc1ccc(O)cc1 (stereo not shown) | 190 | 27 | 250 |  |
| Cc1cc(O)cc(C)c1C[C@@H](CNC(=O)N[C@@H](C)Cc1ccsc1)N(C)C [drawing 538] | 6.5 | 12 | 85 |  |
| Cc1ccc([C@H](C)NC(=O)NC[C@H](Cc2ccc(O)cc2)N(C)C)cc1 [DD 51LS, 1-((S)-2-(dimethylamino)-3-(4-hydroxyphenyl)propyl)-3-((S)-1-(p-tolyl)ethyl)urea] |  |  |  | Ki [1]: 180 nM; Ki [2]: 150 nM; Ki [3]: 700 nM |
| CN(C)[C@H](CNC(=O)CCCc1ccccc1)Cc1ccc(O)cc1 | 100 | 72 | 370 |  |
| CN(C)[C@H](CNC(=O)NCCc1ccsc1)Cc1ccc(O)cc1 [drawing 500] | 150 | 43 | 330 |  |
| C[C@@H](Cc1ccsc1)NC(=O)NC[C@H](Cc1ccccc1)N(C)C [BD 127LS] |  |  |  | Ki [1, 7]: 1000 nM; Ki [3, 8]: 2800 nM |
| C=CCN(C[C@H](Cc1ccccc1)N(C)C)C(=O)N[C@@H](C)Cc1ccsc1 | 1700 | 3200 | ~15000 |  |
| CN(C)[C@@H](CNC(=O)NCCc1ccsc1)Cc1ccc(O)cc1 | 5200 | 1500 | 11000 |  |
| CN(C)[C@H](CNC(=O)NC(C)(C)Cc1ccsc1)Cc1ccccc1 | 790 | 210 | 3000 |  |
| CN(C)C(CNC(=O)NCCc1ccccc1F)Cc1ccc(O)cc1 (stereo not shown) | 440 | 43 | 53 |  |
| Cc1ccc([C@H](C)NC(=O)NC[C@H](Cc2ccc(O)cc2)N(C)C)cc1 [drawing 523] | 180 | 150 | 700 |  |
| CN(CCc1ccccc1)C(=O)N(C)C[C@H](Cc1ccc(O)cc1)N(C)C [drawing 505] | 220 | 490 | 4200 |  |
| CN(C)[C@H](CNC(=S)NCCc1ccsc1)Cc1ccc(O)cc1 [drawing 501] | 86 | 29 | 70 |  |

| Compound | Ki [1, 4] [nM] | Ki [2, 5] [nM] | Ki [3, 6] [nM] | other results |
| --- | --- | --- | --- | --- |
| CN(C)[C@H](CNC(=O)NC1Cc2ccccc2C1)Cc1ccc(O)cc1 [drawing 526] | 51 | 7.7 | 56 |  |
| CN[C@H](CNC(=O)NCCc1ccccc1)Cc1ccc(O)cc1 |  | 290 |  |  |
| CN(C)[C@H](CNC(=O)NC(C)(C)Cc1ccsc1)Cc1cccc(O)c1 [drawing 532] | 32 | 25 | 190 |  |
| C[C@@H](Cc1ccsc1)NC(=O)NC[C@@H](Cc1ccc(O)cc1)N(C)C | 2300 |  | 4800 |  |
| C[C@@H](Cc1ccsc1)NC(=O)NC[C@@H](Cc1ccccc1)N(C)C | 3100 |  | 11000 |  |
| CN(C)C(CNC(=O)NCCc1cccc(F)c1)Cc1ccc(O)cc1 (stereo not shown) | 170 | 36 | 250 |  |
| C=CCN(C[C@H](Cc1ccccc1)N(C)C)C(=O)N[C@H](C)Cc1ccsc1 | 3100 | 4100 | ~15000 |  |
| COc1ccccc1CCNC(=O)NCC(Cc1ccc(O)cc1)N(C)C (stereo not shown) | 140 | 22 | 150 |  |
| CN(CCO)C(CNC(=O)NCCc1ccccc1)Cc1ccc(O)cc1 (stereo not shown) |  |  |  | Ki [1]: 1300 nM; Ki [2]: 970 nM; Ki [3]: 1800 nM |
| C[C@H](NC(=O)NC[C@H](Cc1ccc(O)cc1)N(C)C)c1cccc2ccccc12 [DD 50LS, 1-((S)-2-(dimethylamino)-3-(4-hydroxyphenyl)propyl)-3-((S)-1-(naphthalen-1-yl)ethyl)urea] |  |  |  | Ki [1, 7]: 71 nM; Ki [2, 9]: 84 nM; Ki [3, 8]: 570 nM |
| CN(C)[C@H](CNC(=O)NC(C)(C)Cc1ccsc1)Cc1cccc(O)c1 [DD 46L, (S)-1-(2-(dimethylamino)-3-(3-hydroxyphenyl)propyl)-3-(2-methyl-1-(thiophen-3-yl)propan-2-yl)urea] |  |  |  | Ki [1, 7]: 32 nM; Ki [2, 9]: 25 nM; Ki [3, 8]: 190 nM |
| C[C@H](Cc1ccsc1)NC(=O)NC[C@@H](Cc1ccc(O)cc1)N(C)C | 3100 |  | 4100 |  |
| CN(C)[C@H](CNC(=O)NCCN1C(=O)C2C3C=CC(O3)C2C1=O)Cc1ccc(O)cc1 (stereo partly shown) |  |  |  | Ki [1]: 8200 nM; Ki [2]: 2300 nM; Ki [3]: 36000 nM |
| CN(C)[C@@H](CNC(=O)NC(C)(C)Cc1ccsc1)Cc1ccc(O)cc1 | 1300 | 310 | 2900 |  |
| CC(Cc1ccsc1)NC(=O)NCC(Cc1ccc(O)cc1)N(C)C (single isomer, unassigned) [BD 122DR] |  |  |  | Ki [1, 7]: 3100 nM; Ki [3, 8]: 4100 nM |
| CN(C)[C@@H](CNC(=O)NC(C)(C)Cc1ccccc1)Cc1ccc(O)cc1 | 1500 | 460 | 3600 |  |
| CC(Cc1csc2ccccc12)NC(=O)NC[C@H](Cc1ccc(O)cc1)N(C)C (mixture of isomers) | 19 | 14 |  |  |
| CC(Cc1ccsc1)NC(=O)NCC(Cc1ccccc1)N(C)C (single isomer, unassigned) [BD 127DS] |  |  |  | Ki [1, 7]: 3100 nM; Ki [3, 8]: 11000 nM |
| CN(CCCl)C(CNC(=O)NCCc1ccccc1)Cc1ccc(O)cc1 (stereo not shown) |  |  |  | Ki ([3]; binding affinity Ki hDOR, PZM analogs, (n) = number of independent experiments): 360 nM |
| C[C@H](Cc1ccsc1)NC(=O)NC[C@@H](Cc1ccccc1)N(C)C [drawing 489] | 5000 |  | 12000 |  |
| CN[C@H](CNC(=O)N[C@@H](C)Cc1ccsc1)Cc1ccc(O)cc1 | 240 |  | 700 |  |
| CC(Cc1ccsc1)NC(=O)NCC(Cc1ccccc1)N(C)C (single isomer, unassigned) [BD 127LR] |  |  |  | Ki [1, 7]: 1300 nM; Ki [3, 8]: 1800 nM |
| C[C@@H](Cc1ccsc1)NC(=O)NC[C@H](Cc1ccc(O)cc1)N(C)C [drawing 512] | 18 |  | 1000 |  |
| CC(Cc1ccsc1)NC(=O)NCC(Cc1ccc(O)cc1)N(C)C (single isomer, unassigned) [BD 122DS] |  |  |  | Ki [1, 7]: 2300 nM; Ki [3, 8]: 4800 nM |
| C[C@@H](Cc1ccsc1)NC(=O)NC[C@H](Cc1ccccc1)N(C)C [drawing 492] | 1000 |  | 2800 |  |
